# Data from patent US9624491B2, “Methods and compositions for the detection and treatment of cancer involving miRNAs and miRNA inhibitors and targets” (Memorial Sloan Kettering Cancer Center, priority 2010, dated 2017).
# Legend:
# Assay type in all cases: cell-based, murine
# FL5-12 lymphocytes = assay: IL3 depletion competition assay for cytokine-independent survival of FL5-12 lymphocytes
# Protocol: An established in vitro assay of hematopoietic transformation (Plas, Talapatra, Edinger, Rathmell, & Thompson, 2001) was used to identify the key oncogenic activities within the 17˜92 cluster and its paralogues. All miRNAs representing families of unique seed sequences, specifically miR-17, miR-18a, miR-19b-1 (miR-19), miR-20a, miR-106a, miR-106b and miR-25 were tested (FIG. 1a). The assay is based on the IL3 dependence of FL5-12 lymphocytes, which undergo apoptosis when removed from IL3. In competition experiments, FL5-12 cells were partially transduced with GFP plus individual miRNAs or empty vector and these mixed populations were monitored by fluorescence-activated cell sorting (FACS) for changes in their relative proportions (FIG. 1b).
# FL5-12 murine lymphocytes, IL3 depletion studies and viral transductions were as described (Mavrakis, et al., 2008) (Plas, Talapatra, Edinger, Rathmell, & Thompson, 2001). Cell cycle and cell death assays based on uptake of DNA staining dye (LDS751) using Cell cycle and Viacount assays from Guava Technologies were performed as reported (Mavrakis, et al., 2008). The retroviral vectors are based on murine stem cell virus (MSCV) and include the miRNA expression vectors encoding miRs 17, 18a, 19b-1 (miR-19), 106a, 106b, 25 (He, et al., 2005), the vectors encoding Notch-ICN (a gift from W. Pear) (Pear, et al., 1996) and Bcl2 (Wendel, et al., 2004), the individual shRNA vectors (FIG. 17) and the library vector (MRP) (FIGS. 18a and b). miRNA inhibitor oligonucleotides (antagomirs) MZIP19a-PA-1, MZIP19b-PA-1, and scrambled control (MZIP000-PA-1) were from System Biosciences.
# The primary screen is based on c-MYC-induced apoptosis in MEFs (Evan, et al., 1992). MEFs were transduced with c-MYC and the miRNA library and cultured in puromycin to select for homogeneous c-MYC expression; apoptosis was triggered by diluting serum from 10% to 0.1%. Surviving cells remained adherent and were collected for DNA isolation, PCR amplification of the integrated miRNA library constructs, sub-cloning into pGEM-T vector, bacterial transformation, and sequence identification of ˜100 colonies. A secondary library was constructed by sub-cloning all miRNAs from the primary screen into an MSCV construct. The secondary screen is based on the IL-3 dependence of FL5-12 lymphocytes in vitro (Mavrakis, et al., 2010), (Plas, Talapatra, Edinger, Rathmell, & Thompson, 2001). FL5-12 cells were partially transduced with the pooled, GFP-tagged library and selected by IL-3 depletion. miRNAs were identified as above. Individual miRNAs were subsequently validated in the same FL5-12 assay and in vivo.
# [1] = test system: PPP2R5E, PRKAA1, BIM, PTEN, Bnip3, phosphorylated S6; assay: Immunoblot on lysates of transduced FL5-12 cells
# Protocol: Immunoblots were performed from whole cell lysates as described (Wendel, et al., 2004). Briefly, 50 μg of protein/sample were resolved on SDS-PAGE gels and transferred to Immobilon-P-membranes (Millipore). Antibodies were against Prkaa1 (2532, 1:1000, Cell Signaling), Bim/Bcl2L11 (AAP-330, 1:1000, Assay Designs), FoxO1 (94545, 1:1000, Cell Signaling), FoxO3a (9467, 1:1000, Cell Signaling) Phospho-FoxO3a (94665, 1:1000, Cell Signaling), Ppp2r5e (NB 100-845, NOVUS), Pten (9559, 1:1000, Cell Signaling), tubulin (1:5000; Sigma, B-5-1-2), actin (1:5000; Sigma, AC-15), Bnip3 (3769, 1:1000, Cell Signaling), phosphorylated S6 (2215, 1:1000, Cell Signaling), phosphorylated Akt (4058, 1:1000, Cell Signaling) and Dock5 [a generous gift from Alan Hall (MSKCC)]. Enhanced chemiluminescence was used for detection (ECL, Amersham).
# FL5-12/Bcl2 cells = assay: Complementation studies in FL5-12 cells stably expressing Bcl2; conditions: shifted from complete to IL3 deficient media
# Protocol: The relative contribution of the novel miR-19 targets was assessed. The pro-apoptotic BIM protein opposes BCL2 and is an important regulator of lymphocyte survival (Bouillet, et al., 1999). To assess whether miR-19 has Bim-independent effects, complementation studies were conducted with FL5-12 cells engineered to stably express Bcl2 (FL5-12/Bcl2 cells). […] Similarly, expression of miR-19 was associated with continued proliferation in the presence of metformin-activated AMP kinase or expression of Pten or Pp2r5e (FIG. 16).
substance,measurement,setting,value
"miR-19: miRNA of the 17˜92 cluster, UGUGCAAAUCCAUGCAAAACUGA (SEQ ID NO: 2); seed family in Table 3 (expressed or natural sequence; listed as Homo sapiens)",enrichment of miRNA/GFP-expressing FL5-12 cells over parental cells upon IL3 depletion,"FL5-12 lymphocytes; competition experiment, FACS",rapidly enriched over parental cells upon IL3 depletion
same,IL-3 independence of FL5-12 cells,FL5-12 lymphocytes; retest of individual miRNAs from secondary library screen,confer IL-3 independence on FL5-12 cells
same,Bnip3 protein,[1]; FL5-12 cells,neither miR-19 nor the antagomir had an effect on Bnip3
same,PTEN protein,[1]; FL5-12 cells,no detectable effect on PTEN protein
same,miR-19 target protein levels,[1]; FL5-12 cells,"clear reduction in PPP2R5E, PRKAA1, and BIM"
same,ribosomal S6 phosphorylation,[1]; FL5-12 cells withdrawn from IL3 for 12 hours,directly activated ribosomal S6 phosphorylation
same,enrichment of GFP-expressing FL5-12/Bcl2 cells,FL5-12/Bcl2 cells,continued enrichment in the presence of Bcl2
